Results from PubChem BioAssay AID328 (DTP/NCI, 2004).
“And” between values parts separate entries of the source, which are not always exact repeats. Equal entries are not always repeated. Toxic doses and inconclusive results are not listed.

Test system: BDF1 mice, P388 leukemia ip, median survival T/C
Assay: NCI In Vivo Anticancer Drug Screen. Data for tumor model P388 Leukemia (intraperitoneal) in B6D2F1 (BDF1) mice
Conditions: endpoint: median survival time, higher = longer survival
Method in brief: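 Read-out is survival of treated animals expressed relative to the vehicle group, as a T/C ratio.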

Q: Which T/C (dose: 0.22 mg/kg/injection, schedule: Q01DX009 (ip), vehicle: saline) does the source give for `CS(=O)(=O)Nc1ccc(Nc2c3ccccc3nc3cc(N)ccc23)cc1` here?
A: 205 % of control

Q: And the T/C (dose: 0.33 mg/kg/injection, schedule: Q01DX009 (ip), vehicle: saline)?
A: 205 % of control

Q: And the T/C (dose: 0.44 mg/kg/injection, schedule: Q04DX003 (ip), vehicle: saline)?
A: 159 % of control

Q: What about the T/C (dose: 0.5 mg/kg/injection, schedule: Q01DX009 (ip), vehicle: saline) of the same compound?
A: 222 % of control

Q: And the T/C (dose: 0.56 mg/kg/injection, schedule: Q01DX009 (ip), vehicle: saline)?
A: 222 % of control

Q: What about the T/C (dose: 0.66 mg/kg/injection, schedule: Q04DX003 (ip), vehicle: saline) of the same compound?
A: 168 % of control

Q: And the T/C (dose: 0.75 mg/kg/injection, schedule: Q01DX009 (ip), vehicle: saline)?
A: 253 % of control

Q: What about the T/C (dose: 0.83 mg/kg/injection, schedule: Q01DX009 (ip), vehicle: saline) of the same compound?
A: 275 % of control

Q: What about the T/C (dose: 1.0 mg/kg/injection, schedule: Q04DX003 (ip), vehicle: saline) of the same compound?
A: 154 % of control

Q: What about the T/C (dose: 1.25 mg/kg/injection, schedule: Q01DX009 (ip), vehicle: saline) of the same compound?
A: 268 % of control and 271 % of control

Q: And the T/C (dose: 1.5 mg/kg/injection, schedule: Q04DX003 (ip), vehicle: saline)?
A: 190 % of control

Q: What about the T/C (dose: 1.87 mg/kg/injection, schedule: Q01DX009 (ip), vehicle: saline) of the same compound?
A: 111 % of control

Q: What about the T/C (dose: 2.5 mg/kg/injection, schedule: Q01DX009 (ip), vehicle: saline) of the same compound?
A: 97 % of control

Q: And the T/C (dose: 2.9 mg/kg/injection, schedule: Q04DX003 (ip), vehicle: saline)?
A: 245 % of control

Q: And the T/C (dose: 4.4 mg/kg/injection, schedule: Q04DX003 (ip), vehicle: saline)?
A: 168 % of control

Q: And the T/C (dose: 6.6 mg/kg/injection, schedule: Q04DX003 (ip), vehicle: saline)?
A: 281 % of control

Q: What about the T/C (dose: 10.0 mg/kg/injection, schedule: Q04DX003 (ip), vehicle: saline) of the same compound?
A: 195 % of control

Q: For `Nc1cc2c(c(Cl)c1Br)-c1ccccc1C2=O`, which T/C (dose: 12.5 mg/kg/injection, schedule: Q01DX009 (ip), vehicle: Klucel (hydroxypropylcellulose) (HPC)) is on record?
A: 90 % of control

Q: And the T/C (dose: 25.0 mg/kg/injection, schedule: Q01DX009 (ip), vehicle: Klucel (hydroxypropylcellulose) (HPC))?
A: 86 % of control

Q: What about the T/C (dose: 100.0 mg/kg/injection, schedule: Q01DX001 (ip), vehicle: other) of the same compound?
A: 86 % of control

Q: What about the T/C (dose: 200.0 mg/kg/injection, schedule: Q01DX001 (ip), vehicle: other) of the same compound?
A: 104 % of control

Q: And the T/C (dose: 400.0 mg/kg/injection, schedule: Q01DX001 (ip), vehicle: other)?
A: 104 % of control

Q: Which results are given for `O=P1(N(CCCl)CCCl)NCCCO1` (configuration not stated)?
A: T/C (dose: 6.25 mg/kg/injection, schedule: Q01DX009 (ip), vehicle: saline): 120 % of control; T/C (dose: 10.0 mg/kg/injection, schedule: Q01DX010 (ip), vehicle: water): 227 % of control; T/C (dose: 10.0 mg/kg/injection, schedule: Q01DX015 (ip), vehicle: saline): 167 % of control; T/C (dose: 11.25 mg/kg/injection, schedule: Q01DX010 (ip), vehicle: saline): 186 % of control; T/C (dose: 12.5 mg/kg/injection, schedule: Q01DX009 (ip), vehicle: saline): 124 % of control and 206 % of control; T/C (dose: 15.0 mg/kg/injection, schedule: Q01DX015 (ip), vehicle: saline): 202 % of control and 216 % of control; T/C (dose: 20.0 mg/kg/injection, schedule: Q01DX010 (ip), vehicle: saline): 235 % of control and 259 % of control and 280 % of control; T/C (dose: 20.0 mg/kg/injection, schedule: Q01DX010 (ip), vehicle: water): 272 % of control; T/C (dose: 20.0 mg/kg/injection, schedule: Q01DX015 (ip), vehicle: saline): 245 % of control and 219 % of control; T/C (dose: 25.0 mg/kg/injection, schedule: Q01DX009 (ip), vehicle: saline): 257 % of control and 165 % of control; T/C (dose: 25.0 mg/kg/injection, schedule: Q01DX015 (ip), vehicle: saline): 272 % of control and 349 % of control; T/C (dose: 25.0 mg/kg/injection, schedule: Q04DX003 (ip), vehicle: saline): 150 % of control and 179 % of control; T/C (dose: 25.0 mg/kg/injection, schedule: Q04DX003 (ip), vehicle: water): 283 % of control; T/C (dose: 30.0 mg/kg/injection, schedule: Q01DX010 (ip), vehicle: saline): 272 % of control and 300 % of control (2×); T/C (dose: 30.0 mg/kg/injection, schedule: Q01DX015 (ip), vehicle: saline): 356 % of control and 423 % of control; T/C (dose: 31.3 mg/kg/injection, schedule: Q01DX001 (ip), vehicle: saline): 163 % of control; T/C (dose: 37.5 mg/kg/injection, schedule: Q01DX001 (ip), vehicle: saline): 153 % of control; T/C (dose: 50.0 mg/kg/injection, schedule: Q01DX001 (ip), vehicle: saline): 159 % of control and 175 % of control; T/C (dose: 50.0 mg/kg/injection, schedule: Q01DX009 (ip), vehicle: saline): 250 % of control and 111 % of control and 112 % of control; T/C (dose: 50.0 mg/kg/injection, schedule: Q04DX003 (ip), vehicle: saline): 258 % of control and 192 % of control; T/C (dose: 50.0 mg/kg/injection, schedule: Q04DX003 (ip), vehicle: water): 111 % of control; T/C (dose: 50.0 mg/kg/injection, schedule: Q08DX002 (ip), vehicle: saline): 218 % of control; T/C (dose: 62.5 mg/kg/injection, schedule: Q01DX001 (ip), vehicle: saline): 190 % of control; T/C (dose: 70.0 mg/kg/injection, schedule: Q04DX003 (ip), vehicle: saline): 258 % of control and 98 % of control; T/C (dose: 75.0 mg/kg/injection, schedule: Q04DX003 (ip), vehicle: saline): 557 % of control; T/C (dose: 86.4 mg/kg/injection, schedule: Q01DX001 (ip), vehicle: saline): 234 % of control and 117 % of control and 193 % of control; T/C (dose: 89.0 mg/kg/injection, schedule: Q01DX001 (ip), vehicle: saline): 197 % of control; T/C (dose: 100.0 mg/kg/injection, schedule: Q01DX009 (ip), vehicle: saline): 100 % of control and 112 % of control and 113 % of control; T/C (dose: 100.0 mg/kg/injection, schedule: Q04DX003 (ip), vehicle: water): 91 % of control; T/C (dose: 100.0 mg/kg/injection, schedule: Q08DX002 (ip), vehicle: saline): 267 % of control; T/C (dose: 125.0 mg/kg/injection, schedule: Q01DX001 (ip), vehicle: saline): 293 % of control; T/C (dose: 144.0 mg/kg/injection, schedule: Q01DX001 (ip), vehicle: saline): 297 % of control and 541 % of control and 198 % of control; T/C (dose: 180.0 mg/kg/injection, schedule: Q01DX001 (ip), vehicle: water): 244 % of control; T/C (dose: 200.0 mg/kg/injection, schedule: Q04DX003 (ip), vehicle: saline): 103 % of control; T/C (dose: 200.0 mg/kg/injection, schedule: Q08DX002 (ip), vehicle: saline): 270 % of control; T/C (dose: 240.0 mg/kg/injection, schedule: Q01DX001 (ip), vehicle: saline): 290 % of control and 544 % of control; T/C (dose: 300.0 mg/kg/injection, schedule: Q01DX001 (ip), vehicle: water): 268 % of control; T/C (dose: 400.0 mg/kg/injection, schedule: Q08DX002 (ip), vehicle: saline): 88 % of control; T/C (dose: 500.0 mg/kg/injection, schedule: Q01DX001 (ip), vehicle: water): 252 % of control; T/C (dose: 600.0 mg/kg/injection, schedule: Q01DX001 (ip), vehicle: saline): 54 % of control
